Values of other authors in US20250295594A1, “ENTERAL SUSTAINED-RELEASE SUGAR ALCOHOL ADDITIVE AND PREPARATION METHOD AND APPLICATION THEREOF” (ZHEJIANG HUAKANG PHARMACEUTICAL CO., LTD., priority 2020, published 2025).

Settings: existing experimental data, unformulated sugar / sugar alcohol

absorption rate of the small intestine [%]	Structure (SMILES)
70	O=C[C@H](O)[C@@H](O)[C@@H](O)CO [arabinose, L-arabinose]
60	OC[C@@H](O)[C@H](O)[C@@H](O)CO [xylitol]
